Assay results reported in patent US20220296600A1, “USE OF A COMPOSITION COMPRISING 3,6,7-TRIMETHYLLUMAZINE FOR PREVENTING, AMELIORATING OR TREATING MMP-9 ASSOCIATED CONDITIONS AND INFLAMMATION” (COMVITA LIMITED, priority 2019, published 2022).

Legend:
[1] = test system: MMP-9 secretion in differentiated THP-1 cells; experiment: LPS induced MMP-9 secretion in differentiated THP-1 cells (ELISA); type: cell-based, human; conditions: LPS 1 μg/mL; for reduction of MMP-9 secretion: 24 hours
Description: THP-1 cells (ATCC, ATCTIB202) were grown in RPMI-1640 (Gibco, 11875093)+0.05 mM 2-mercaptoethanol+10% fetal calf serum (FCS)+1% pen-strep. For experiments, the cells were cultured in RPMI-1640 medium with 10% fetal bovine serum (FBS) only.
THP-1 monocyte cells were seeded at a density of 2.5×10^5 cells/ml in 96-well plates and differentiated into macrophages using 10 ng/ml of phorbol 12-myristate 13-acetate (PMA) (Bergin et al) (Sigma, P1585-1MG, Lot #SLBX889, 100% purity) for 72 hours. PMA media was then removed from the differentiated THP-1 cells, the cells were then washed once in RPMI-1640 media and then left to rest for ˜5 hours.
The differentiated THP-1 cells were stimulated with LPS from E. coli […] (Sigma, L6529; Lot#037K4068). LPS tested at a concentration of 1 μg/ml (Kong et al). The cells were incubated with LPS alone or in combination with 3,6,7-trimethyllumazine (received from University of Auckland and diluted in RPMI-1640 at a stock concentration of 1 mg/ml, stock was stored in fridge for 2 days before use) at a concentration range between 2.5-40 μg/ml. 6 μM Azithromycin (Sigma, Cat #75199-25MG, Lot#069M4826V) was used as a positive control (Vandooren et al). The cells were then incubated with the different treatments for 24 hours (Kong et al). After 24 hours, the cell culture media was collected and measured for MMP-9 concentration using MMP-9 ELISA (R&D systems, RDSDY91105 lot #P239459 and DY008 Lot #P239900). The cells were then incubated with WST-1 for cell viability.
This human MMP-9 assay measures the 92 kDa Pro-MMP-9 and the 82 kDa active MMP-9. […] This assay also recognizes human MMP-9 when complexed to Lipocalin-2/NGAL, isolated from human source material.
In order to better capture the variability, each treatment was done at least in triplicate in each plate (2 plates). Media from the triplicate wells were pooled and analysed in duplicates for the MMP-9 ELISA. A student's test was performed in excel between media with LPS and the different treatments.

[2] = Simulated gastrointestinal digestion (SGF then SIF), 3,6,7-trimethyllumazine retention by HPLC; type: in vitro ADME; conditions: from four Manuka honey samples; 2 h gastric plus 4 h intestinal digestion
Description: The simulated gastrointestinal digestion was carried out using a static model. The simulated gastric fluid (SGF) and the simulated intestinal fluid (SIF) were prepared in accordance with a global consensus protocol (Minekus et al 2014). The SGF has a pH 3 to mimic the fed-state of the stomach. When mixed with Manuka honey (or a honey solution), the final mixture contains 2000 U/mL of pepsin. The SIF has pH 7 to mimic the fed-state of the small intestine, containing 2 mg/mL of pancreatin (8 x USP, or based on a protease activity of 200 U/mL) and 20 mM of porcine bile extract before use.
In the simulated gastric digestion, 2 g of Manuka honey was incubated in 2 mL of SGF at 37° C. under 95 rpm shaking for a period of 2 h (triplicates). At selected time points (0, 30, 60 and 120 min), a predetermined volume (0.1 mL) of the mixture was withdrawn for 3,6,7-trimethyllumazine analysis. […]
The gastric and intestinal digesta for 3,6,7-trimethyllumazine analysis was treated to remove insoluble fractions (e.g. pancreatin) before HPLC analysis. […] The amount of 3,6,7-trimethyllumazine at different time points was analysed using a reverse-phase HPLC system, which has been previously used to analyse 3,6,7-trimethyllumazine and leptosperin as reported in the literature (Bin Lin et al 2017). […] The signal of 3,6,7-trimethyllumazine was detected at 320 nm.

active MMP-9 = experiment: Gelatin gel zymography, active MMP-9 band; type: biochemical; conditions: active MMP-9 band (~37 kDa); supplemented developing buffer
Description: (§1) Novex™ 10% Zymogram Plus (Gelatin) Protein Gels (15 wells) were purchased from Thermo Fisher Scientific Inc. (Auckland, New Zealand). All chemicals required for the zymogram analysis were also purchased from Thermo Fisher, these include Novex™ Sharp Pre-stained Protein Standard, Novex Tris-Glycine SDS sample buffer, Novex Tris-Glycine SDS running buffer, Novex Zymogram renaturing buffer and Novex Zymogram developing buffer. […] Gelatin gel zymography was performed as an independent technique to confirm the inhibition of MMP-9 from 3,6,7-trimethyllumazine. This technique uses a non-reducing SDS-PAGE (sodium dodecyl sulfate polyacrylamide gel electrophoresis) gel embedded with gelatin. Proteins are migrated and separated during electrophoresis. The SDS is removed after electrophoresis and the gel is then incubated with essential cofactors required for enzymatic activity. The embedded gelatin can be digested by MMP-9, resulting in clear bands on a dark blue background after staining with Coomassie blue dyes. The gelatinase activity is represented by band densitometry, which can be assessed with image analysis software. […]
(§2) After incubation, the gelatin gel was rinsed with water for three times (5 min each) under gentle agitation. […] MMP-9 activities were analysed using densitometry on ImageJ Version 1.52a.

recombinant MMP-9 enzyme [3] = target: T1, recombinant MMP-9 enzyme (Homo sapiens, UniProt P14780); experiment: MMP-9 inhibitor screening assay (fluorometric); type: biochemical
T1 construct: purchased Abcam (Melbourne, Australia)
T1 sequence (P14780 94-707): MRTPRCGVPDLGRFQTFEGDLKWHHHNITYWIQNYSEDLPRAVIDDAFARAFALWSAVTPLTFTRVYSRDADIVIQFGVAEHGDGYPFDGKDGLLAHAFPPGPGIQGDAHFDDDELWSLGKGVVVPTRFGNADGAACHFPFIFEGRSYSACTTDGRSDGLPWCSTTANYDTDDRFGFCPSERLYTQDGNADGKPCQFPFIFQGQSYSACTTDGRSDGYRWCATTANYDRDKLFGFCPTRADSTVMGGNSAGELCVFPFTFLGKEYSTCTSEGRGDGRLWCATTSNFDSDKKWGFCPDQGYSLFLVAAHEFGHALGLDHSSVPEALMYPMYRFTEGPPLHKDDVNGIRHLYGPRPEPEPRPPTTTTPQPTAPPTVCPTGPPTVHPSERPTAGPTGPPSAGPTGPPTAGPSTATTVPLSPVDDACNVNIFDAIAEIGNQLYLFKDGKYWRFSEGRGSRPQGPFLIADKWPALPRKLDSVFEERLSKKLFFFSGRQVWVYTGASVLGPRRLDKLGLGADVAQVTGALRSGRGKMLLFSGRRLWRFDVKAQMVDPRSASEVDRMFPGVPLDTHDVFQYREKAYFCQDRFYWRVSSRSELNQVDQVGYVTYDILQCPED
Description: The MMP-9 inhibitor screening assay (fluorometric) kits were purchased from Abcam (Melbourne, Australia). The fluorometric kit contains the recombinant MMP-9 enzyme, MMP inhibitor NNGH (N-isobutyl-N-[4-methoxyphenylsulfonyl]glycyl hydroxamic acid), MMP fluorogenic substrate solubilised in DMSO, the fluorometric assay buffer and 96-well clear microplate.
Inhibitory activity on MMP-9 was assessed using the commercial MMP-9 inhibitor screening assay kit. MMP-9 activity was expressed as a change in fluorescence intensity measured using SpectraMax iD3 multi-mode microplate reader (Molecular Devices, San Jose, USA).
The assay employs a FRET-tagged (fluorescence resonance energy transfer) substrate, which can be hydrolysed by MMP-9 at a specific site (Abcam, 2018). The cleavage of the FRET substrate releases the quenched fluorescent Mca (7- methoxycoumarin-4-yl)-acetyl group (Abcam, 2018). The kit employs a quenched fluorogenic substrate Mca-Pro-Leu-Gly-Leu-Dpa-Ala-Arg-NH2, where the Mca fluorescence is quenched by Dpa until cleavage by MMPs. The amount of fluorescent product yielded by MMP-9 can be detected fluorometrically and it is proportional to the enzyme activity. Fluorescence were measured at ex320 nm-em395 nm to minimise fluorescence interference from 3,6,7-trimethyllumazine at ex330 nm-em470 nm. Assays were performed on a 96-well clear microplate included in the kit with a final reaction volume of 100 µL. Before adding the substrate, MMP-9 enzymes were incubated with testing samples and inhibitor control for 60 min at 37° C. The fluorescent substrate was added into each well prior to the assay to initiate the reaction. The assay was allowed to run for 20 min and the temperature in the reaction chamber was set to 37° C.
Testing samples were prepared comprising 3,6,7-trimethyllumazine prepared as outlined above.
A positive control was included with only MMP-9 and the fluorescent substrate, used as a reference to calculate the percentage inhibition. A broad spectrum MMP inhibitor NNGH was included as the negative control. […]

recombinant MMP-9 enzyme [4] = target: T1, recombinant MMP-9 enzyme; experiment: MMP-9 inhibitor screening assay (colorimetric); type: biochemical; conditions: read-out: percentage inhibition of MMP-9
Excerpt: The MMP-9 inhibitor screening assay (colorimetric) kits were purchased from Abcam (Melbourne, Australia). The kit contains the recombinant MMP-9 enzyme, MMP inhibitor NNGH, MMP chromogenic substrate, the colorimetric assay buffer and 96-well clear microplate.
The colorimetric kit uses a thiopeptide as a chromogenic substrate (Ac-PLG- [2-mercapto-4-methyl-pentanoyl]-LG-[…]), which can be hydrolysed by MMPs to produce a sulfhydryl group. This intermediate product further reacts with DTNB [5,5′-dithiobis(2-nitrobenzoic acid), Ellman's reagent] to form 2-nitro-5-thiobenzoic acid, which can be detected by absorbance at 412 nm. The change in absorbance was measured using the SpectraMax iD3 multi-mode microplate reader (Molecular Devices, San Jose, USA). The assays are performed on a convenient 96-wells microplate with a final reaction volume of 100 μL. Prior to the assay, all testing samples and inhibitor controls were incubated with MMP-9 for 60 min at 37° C. […] The absorbance was measured at 1 min intervals during the first 20 min, then 10 min intervals till the end of assay.
Recombinant MMP-9 and the chromogenic substrate were used as the positive control to represent 100% enzyme activity. […] A range of 3,6,7-trimethyllumazine concentrations were diluted with the colorimetric assay buffer to measure the absorbance of the reaction product.

[5] = test system: differentiated THP-1 cells; experiment: Cell viability (WST-1); type: cell-based; conditions: 40 μg/mL
Description: To measure cytotoxicity of 3,6,7-trimethyllumazine at different doses, 2-(4-lodophenyl)-3-(4-nitrophenyl)-5-(2,4-disulfophenyl)-2H-tetrazolium, monosodium salt (WST-1) (Roche, 11644807001, Lot #45255800) was used. WST-1 is a cell proliferation reagent for measurement of cellular proliferation, viability, and cytotoxicity using a colorimetric assay (Gosert (2011); Peskin (2000)).
After incubation, a portion of the culture media was taken and stored for MMP-9 secretion testing using ELISA. The remaining media in the plates was then removed and 100 μl of WST-1 in RPMI-1640 media (1:10 dilution) was added to each cell well and incubated at 37° C. for a further 4 hours. The plates were then read using a plate reader at wavelength of 450 nm. Cytotoxicity was calculated as follows: • [WST-1 score for each sample/WST-1 score for the control]×100 • A WST-1 score below 80% will be considered cytotoxic.

[6] = test system: inactive MMP-9 (pro-MMP-9); experiment: Gelatin gel zymography, inactive (pro-)MMP-9 band; type: biochemical; conditions: inactive MMP-9 band; supplemented developing buffer
Description: as §1, §2

SMILES: CC[C@H]1OC(=O)[C@H](C)[C@@H](O[C@H]2C[C@@](C)(OC)[C@@H](O)[C@H](C)O2)[C@H](C)[C@@H](O[C@@H]2O[C@H](C)C[C@H](N(C)C)[C@H]2O)[C@](C)(O)C[C@@H](C)CN(C)[C@H](C)[C@@H](O)[C@]1(C)O [Azithromycin, reference compound]
- effect on MMP-9 secretion ([1]; 6 μM positive control, absolute values, P=0.00): inhibits mmp-9 secretion

SMILES: Cc1nc2[nH]c(=O)n(C)c(=O)c2nc1C [3,6,7-trimethyllumazine]
- initial 3,6,7-trimethyllumazine amount recovered in the digesta [2]: ~100%
- percentage inhibition of gelatinase activity (densitometry) (active MMP-9): 31%
- inhibition at 2.5 µg/mL (recombinant MMP-9 enzyme [3]; 2.5 μg/ml, not significant (p>0.05), read-out: percentage inhibition of MMP-9 activity): 12%
- IC50 (recombinant MMP-9 enzyme [3]; fluorometric, second-order polynomial fit of % inhibition vs concentration): 55.8 µM
- inhibition at 40 µg/mL (recombinant MMP-9 enzyme [4]; 40 μg/ml): 10%
- inhibition at 80 µg/mL (recombinant MMP-9 enzyme [4]; 80 μg/ml): 10%
- WST-1 score (cell viability; below 80% considered cytotoxic) [5]: 79.8%
- reduction of MMP-9 secretion ([1]; 30 μg/mL): 23%
- reduction of MMP-9 secretion ([1]; 40 μg/mL): 38%
- percentage inhibition of gelatinase activity (densitometry) [6]: 17%

SMILES: COc1ccc(S(=O)(=O)N(CC(=O)NO)CC(C)C)cc1 [NNGH, N-isobutyl-N-[4-methoxyphenylsulfonyl]glycyl hydroxamic acid, reference compound]
- change in fluorescence intensity (MMP-9 activity) (recombinant MMP-9 enzyme [3]; NNGH inhibitor control): almost no change in fluorescence
